Test system: cultured mouse cortical neurons
Assay: Digital holographic imaging (DHI) of glutamate-mediated morphological changes (phase/OPL signal) in neurons
Type: cell-based
From the text: FIG. 3 presents an example of application of the present invention to image living cells in culture enclosed in a perfusion chamber 30 filled with a physiological solution 37. […] A CCD camera 35 records the hologram. The hologram is produced by the interference with a reference wave 36. A numerical procedure is then applied to reconstruct the hologram. The obtained phase-contrast image can be presented in 3D perspective, as presented for example in FIG. 4d.
From the quantitative phase-contrast image, quantitative data about the cell morphology can be obtained. The refractive index, at the wavelength of 633 nm, of the perfused solution nm=1.3336±0.0002, was measured with an Abbe refractometer. By assuming, in first approximation, a constant and homogeneous cellular refractive index ns=1.365, one can estimate that an phase of 10 degree corresponds to a cellular thickness d=0.6 μm. Using this relation between phase and thickness, phase measurements extracted from specific pixels of the quantitative phase-contrast image presented FIG. 3c, yields a thickness of 1-3 μm for the neuronal processes and of approximately 8 μm for the cell body. Even with the assumption of a homogeneous distribution of intracellular refractive index (which can be discussed given a certain degree of heterogeneity of its constituents), these estimations of cell morphology give realistic values of typical cell dimensions as described in the literature for the mouse cortical neurons presented here. Using the same assumption for refractive index of the cell, and based on a phase measurement accuracy of 0.7 degree, that is dictated by experimental opto-mechanical noise, we obtain an axial (or vertical) resolution of 40 nanometers.
As an example of application of the present invention, the present invention has been applied to study the effects of an excitatory neurotransmitter (glutamate) on the morphology of cultured mouse cortical neurons. The influence of glutamate on neuron morphology has been already described as resulting from excitotoxicity, for high concentrations (20-500 μM) and long exposures of several minutes. […] It has also been established that this effect occurs in response to the activation of N-methyl-D-aspartate (NMDA) receptors. FIG. 4a presents the temporal evolution of the phase signal measured, in real-time by DHI, in the domain delimited by a black rectangle in FIG. 4b, which presents a typical example of a quantitative phase contrast image of a living mouse cortical neuron immersed in a physiological solution. […] These pulses of pharmacological agents are indicated by black triangles in FIG. 4a. […] The concentrations of GLUT, are respectively 15 μM, 10 μM, 15 μM and 20 μM. At instants indicated by black triangles 45 and 46, 400 μM of kynurenate (KYN), a broad spectrum ionotropic glutamate receptor antagonist, has been added to GLUT. […] These OPL increases could be reproduced several times over periods of more than three hours. […] A concentration-response curve (FIG. 4c) has been established on the basis of 5 different experiments. As response amplitudes vary from cell to cell, results were normalized with respect to the maximal response which occurred at a concentration of ˜15 μM. […] Without glycine cells started to respond at glutamate concentrations higher than 15 μM and for only ˜25% of cells (vs. ˜80% in the presence of glycine). As glycine is an NMDA receptor co-agonist, this behavior further emphasizes the role these receptors in the glutamate-evoked responses. The maximum amplitude of a typical phase increase is ˜10 degree representing ˜5% of the initial cellular phase. If we assume once again a constant cellular refractive index (ns=1.365), this corresponds to an increase in the vertical (z) axis of ˜0.6 μm.

`C[C@]12N[C@H](Cc3ccccc31)c1ccccc12` [MK-801] was tested, and the “effect on glutamate-evoked phase signal” value (5 μM added to GLUT) was “inhibited”.

`N[C@@H](CCC(=O)O)C(=O)O` [glutamate] was tested, and the “maximum amplitude of a typical phase increase” value was roughly 10 degree, the “maximum phase increase as share of the initial cellular phase” value was roughly 5% and the EC50 (20 seconds pulses, glycine (3 μM) in perfusion solutions, 5 different experiments, normalized to maximal response, read-out: EC50 of glutamate-evoked phase response (Hill equation fit of concentration-response curve)) was roughly 7.5 µM. The “phase signal on application alone” value (GLUT 15, 10, 15 and 20 μM pulses of 20 seconds) was “Marked phase increases”, the “increase in the vertical (z) axis” value (assuming constant cellular refractive index ns=1.365) was roughly 0.6 μm and the Hill coefficient (concentration-response curve, glycine (3 μM) present) was 3.75±0.4. For the same molecule, the “concentration at which the maximal response occurred” value (glycine (3 μM) present) was roughly 15 µM, the cells responding (in the presence of glycine) was roughly 80% and the cells responding (without glycine) was roughly 25%. For the same molecule, the “glutamate concentration at which cells started to respond” value (without glycine) was “higher than 15 μM”.

`O=C(O)c1cc(=O)c2ccccc2[nH]1` [KYN, kynurenate] was tested, and the “effect on glutamate-evoked phase signal” value (400 μM added to GLUT) was “No increase of the phase signal occurs”.
